Laboratory results published in the supplement of paper PMC7108870.

Tests used:
[1] = test system: HEK293sieSTAT3(Y640F); assay: drug sensitivity score (DSS), cytotoxicity CellTox Green (DSS (dimensionless)); higher = more cytotoxic; extreme values may be limits of the assay; conditions: 72 h; STAT3 variant: Y640F (constitutively active)
In short: (§1)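 HEK293 cells carrying a STAT3-dependent luciferase reporter and overexpressing wild-type or mutant STAT3 (20 μl at 100,000 cells/ml) were added to compounds acoustically pre-plated at 5 concentrations in 10-fold dilutions in 384-well plates. After 72 hours at 37°C and 5% CO2, CellTox Green fluorescence (485/520 nm) and then CellTiter-Glo luminescence were read on a PHERAstar FS. Values were normalised to negative and positive control wells, and a drug sensitivity score based on dose-response curve area was computed in Breeze. Each value comes from one representative of two experiments.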

[2] = test system: HEK293sieSTAT3(wt); assay: as above; conditions: 72 h; STAT3 variant: wild type
In short: as §1

[3] = test system: HEK293sieSTAT3(Y640F); assay: drug sensitivity score (DSS), viability CellTiter-Glo (DSS (dimensionless)); higher = more growth inhibition; extreme values may be limits of the assay; conditions: 72 h; STAT3 variant: Y640F (constitutively active)
In short: as §1

[4] = test system: HEK293sieSTAT3(wt); assay: as above; conditions: 72 h; STAT3 variant: wild type
In short: as §1

SMILES | drug sensitivity score [1] | drug sensitivity score [2] | drug sensitivity score [3] | drug sensitivity score [4]
CN1CCN(c2cc(C(=O)Nc3ccc4c(c3)-c3c(c(C(N)=O)nn3-c3ccc(F)cc3)CC4)c(Cl)cn2)CC1 [PHA 408] (top concentration tested 10000 nM) | 5.61 | 8.63 | 9.12 | 8.88
CCn1nnc2c(N3CCOCC3)nc(-c3ccc(NC(=O)Nc4ccc(C(=O)N5CCN(C)CC5)cc4)cc3)nc21 [PKI-402] (top concentration tested 2500 nM) | 0 | 5.48 | 16.7 | 16.8
O=C(Nc1ccc(-c2ccnc(Nc3ccc(N4CCOCC4)cc3)n2)cc1)C1CCCN1 (stereo unspecified) [XL019] (top concentration tested 10000 nM) | 0 | 0 | 1.98 | 2.07
CNC(=O)c1ccc(-c2cnc3ncc(Cc4ccc5ncccc5c4)n3n2)cc1F [NVP-INC280] (top concentration tested 1000 nM) | 0 | 0 | 3.02 | 2.77
CN[C@@H](C)C(=O)N[C@H](C(=O)N1CCC[C@H]1c1nc(C(=O)c2ccc(F)cc2)cs1)C1CCCCC1 [LCL161] (top concentration tested 25000 nM) | 26.6 | 45 | 13.7 | 24.6
Cc1cn(-c2cc(NC(=O)c3ccc(C)c(Nc4nccc(-c5cccnc5)n4)c3)cc(C(F)(F)F)c2)cn1 [Nilotinib] (top concentration tested 10000 nM) | 0.16 | 0 | 3.13 | 3.74
O=S(=O)(c1cccc2cnccc12)N1CCCNCC1 [Fasudil] (top concentration tested 50000 nM) | 2.11 | 4.45 | 4.74 | 3.23
Nc1nc2[nH]cnc2c(=S)[nH]1 [Thioguanine] (top concentration tested 10000 nM) | 0 | 1.43 | 9.91 | 9.24
COc1ccc(-c2cc3c(C)nc(N)nc3n([C@H]3CC[C@H](OCCO)CC3)c2=O)cn1 (top concentration tested 10000 nM) | 0 | 2.91 | 20.1 | 23.3
CN[C@@H]1C[C@H]2O[C@@](C)([C@@H]1OC)n1c3ccccc3c3c4c(c5c6ccccc6n2c5c31)C(=O)N[C@H]4O [UCN-01] (top concentration tested 10000 nM) | 3.93 | 9.92 | 28.3 | 29.5
N#Cc1ccc(COC[C@H]2O[C@@H](n3c(NCc4ccc(Cl)c(Cl)c4)nc4c(N)ncnc43)[C@H](O)[C@@H]2O)cc1 (top concentration tested 10000 nM) | 0 | 0.11 | 4.87 | 3.11
C=CCN(/C=C1/C(=O)O[C@H](COC)[C@@]2(C)C1=C(O)C(=O)C1=C2[C@H](OC(C)=O)C[C@]2(C)C(=O)CC[C@@H]12)CC=C [Sonolisib] (top concentration tested 10000 nM) | 2.34 | 0 | 1.67 | 0.33
Cn1c(=O)n(-c2ccc(C(C)(C)C#N)cc2)c2c3cc(-c4cnc5ccccc5c4)ccc3ncc21 [Dactolisib] (top concentration tested 1000 nM) | 0 | 2.88 | 19.3 | 23
CCc1c2c(nc3ccc(O)cc13)-c1cc3c(c(=O)n1C2)COC(=O)[C@]3(O)CC [SN-38] (top concentration tested 10000 nM) | 14.3 | 22.4 | 42 | 40.7
CN1CCN(CCOc2cc(OC3CCOCC3)c3c(Nc4c(Cl)ccc5c4OCO5)ncnc3c2)CC1 [Saracatinib] (top concentration tested 10000 nM) | 1.77 | 9.4 | 7.28 | 6.87
O=C(c1cccc(Cl)c1F)N1CCN(Cc2cccc(Nc3nccs3)n2)CC1 [MK-8745] (top concentration tested 2500 nM) | 0 | 1.16 | 0.11 | 3.99
COc1cc2c(Oc3ccc4[nH]c(C)cc4c3F)ncnc2cc1OCCCN1CCCC1 [Cediranib] (top concentration tested 1000 nM) | 0 | 0.26 | 1.03 | 1.46
CC[C@H](CO)Nc1nc(NCc2ccccc2)c2ncn(C(C)C)c2n1 [Seliciclib] (top concentration tested 10000 nM) | 2.48 | 6.62 | 6.02 | 6.69
C=CCc1cccc(/C=N/NC(=O)CN2CCN(Cc3ccccc3)CC2)c1O [PAC-1] (top concentration tested 10000 nM) | 0 | 3.52 | 4.7 | 7.56
CCn1cc(-c2ccnc3[nH]c(-c4cccc(CN(C)C)c4)cc23)c(-c2ccc(NC(=O)N(C)C)cc2)n1 (top concentration tested 1000 nM) | 0 | 0.19 | 4.73 | 5.64
Cn1cc(C[C@@H](N)C(=O)O)c2ccccc21 [1-methyl-D-tryptophan] (top concentration tested 5000 nM) | 0 | 0 | 0 | 0
O=C(O)CCCc1ccc(N(CCCl)CCCl)cc1 [Chlorambucil] (top concentration tested 10000 nM) | 0 | 0 | 1.45 | 0.99

SMILES | drug sensitivity score [1] | drug sensitivity score [2] | drug sensitivity score [3] | drug sensitivity score [4]
Nc1ncnc2c1nc(N)n2[C@@H]1O[C@H](CO)[C@@H](O)[C@H]1O [8-amino-adenosine] (top concentration tested 50000 nM) | 11.1 | 15.1 | 21.9 | 23.9
CN(C)C1CCN(C(=O)c2ccc(NC(=O)Nc3ccc(-c4nc(N5CCOCC5)nc(N5CCOCC5)n4)cc3)cc2)CC1 [Gedatolisib] (top concentration tested 1000 nM) | 0 | 0.82 | 12.9 | 9.54
Cc1ccc(NC(=O)c2ccc(CN3CCN(C)CC3)cc2)cc1Nc1nc(-c2cccnc2)cs1 [Masitinib] (top concentration tested 10000 nM) | 0.7 | 5.99 | 4.59 | 7.57
CC(C)[C@@H](CS(=O)(=O)C(C)C)N1C(=O)[C@@](C)(CC(=O)O)C[C@H](c2cccc(Cl)c2)[C@H]1c1ccc(Cl)cc1 [AMG-232] (top concentration tested 1000 nM) | 0 | 0 | 0 | 0
Cc1ncc(-c2ccnc(Nc3ccc(S(C)(=O)=O)cc3)n2)n1C(C)C [AZD-5438] (top concentration tested 10000 nM) | 5.66 | 13.8 | 9.27 | 15.4
S=C(NCc1ccc2c(c1)OCO2)N1CCN(c2ncnc3c2oc2ccccc23)CC1 [Amuvatinib] (top concentration tested 10000 nM) | 3.08 | 8.39 | 5.74 | 5.71
C=CC(=O)N1CCC[C@@H](n2nc(-c3ccc(Oc4ccccc4)cc3)c3c(N)ncnc32)C1 [Ibrutinib] (top concentration tested 1000 nM) | 0.94 | 3.43 | 0.59 | 2.79
CN(c1ncccc1CNc1nc(Nc2ccc3c(c2)CC(=O)N3)ncc1C(F)(F)F)S(C)(=O)=O (top concentration tested 10000 nM) | 1.32 | 7.18 | 8.82 | 12
COc1cccc(OCCCN)c1-c1cc(Nc2cnc(C#N)cn2)n[nH]1 [Prexasertib] (top concentration tested 10000 nM) | 15.4 | 12.4 | 42.1 | 37
CN1CCC(CNc2ccc3ncc(-c4cccc(OC(F)(F)F)c4)n3n2)CC1 [SGI-1776] (top concentration tested 10000 nM) | 4.99 | 7.56 | 6.8 | 9.07
CCCC(CCC)C(=O)O [Valproic acid] (top concentration tested 1000000 nM) | 0 | 0 | 3.24 | 3.15
O=C(c1ccc(F)c(F)c1Nc1ccc(I)cc1F)N1CC(O)([C@@H]2CCCCN2)C1 [Cobimetinib] (top concentration tested 1000 nM) | 0 | 0 | 3.13 | 3.78
O=NN(CCCl)C(=O)NC1CCCCC1 [Lomustine] (top concentration tested 10000 nM) | 0 | 0 | 0 | 0
c1cc(CN2CCCNCCNCCCNCC2)ccc1CN1CCCNCCNCCCNCC1 [Plerixafor] (top concentration tested 10000 nM) | 0 | 0.25 | 0 | 0
CNC(=O)c1ccc(N2C(=S)N(c3cnc(C#N)c(C(F)(F)F)c3)C(=O)C23CCC3)cc1F [ARN 509] (top concentration tested 10000 nM) | 0 | 0 | 2.68 | 2.33
O=C(Nc1cccnc1)N1CCC(Cc2cccc(Oc3ccc(C(F)(F)F)cn3)c2)CC1 [PF-3845] (top concentration tested 10000 nM) | 0 | 0 | 1.51 | 3.05
Cc1nc(C(=O)NCC(=O)O)c(O)c2ccc(Oc3ccccc3)cc12 [FG-4592] (top concentration tested 10000 nM) | 0 | 0 | 1.3 | 2.23
CN(N=O)C(=O)N[C@@H](C=O)[C@@H](O)[C@H](O)[C@H](O)CO [Streptozocin] (top concentration tested 10000 nM) | 0 | 0 | 0 | 1.93
CC1(C)CCC(c2ccc(Cl)cc2)=C(CN2CCN(c3ccc(C(=O)NS(=O)(=O)c4ccc(N[C@H](CCN5CCOCC5)CSc5ccccc5)c(S(=O)(=O)C(F)(F)F)c4)cc3)CC2)C1 [Navitoclax] (top concentration tested 10000 nM) | 0 | 0 | 0 | 0
CCC1=C[C@@H]2CN(C1)Cc1c([nH]c3ccccc13)[C@@](C(=O)OC)(c1cc3c(cc1OC)N(C)[C@H]1[C@@](O)(C(=O)OC)[C@H](OC(C)=O)[C@]4(CC)C=CCN5CC[C@]31[C@@H]54)C2 [Vinorelbine] (top concentration tested 10000 nM) | 5.27 | 19.2 | 30.6 | 34
CS(=O)(=O)N1CCN(Cc2cc3nc(-c4cccc5[nH]ncc45)nc(N4CCOCC4)c3s2)CC1 [Pictilisib] (top concentration tested 10000 nM) | 1.36 | 7.57 | 12.7 | 15.7
CCNc1nc(Nc2cc(F)c(C(=O)N3CCOCC3)cc2OC)ncc1C(F)(F)F [GNE-7915] (top concentration tested 1000 nM) | 0 | 0 | 4.87 | 2.71
